Source: patent publication US7915448B2, “Substituted sulfonylaminoarylmethyl cyclopropanecarboxamide as VR1 receptor antagonists” (Pfizer Inc., priority 2005, dated 2011)
pIC50: −log10 of the molar value.

What was measured:
human VR1 receptors = target: T1, human VR1 receptors (Homo sapiens, UniProt Q8NER1); assay: Human VR1 antagonist assay (Ca2+ imaging); assay type: cell-based; conditions: cells expressing human VR1, fura-2 Ca2+ imaging, FDSS 6000; capsaicin (300 nM) or acid (pH5.8) stimulation, table does not say which
T1 construct: host or cells: cells highly expressing human VR1; cell type not specified
From the text: Human VR1 Antagonist Assay
VR1 antagonistic activity can be determined by the Ca^2+ imaging assay using human VR1 highly expressing cells. The cells that highly express human VR1 receptors are obtainable from several different conventional methods. The one standard method is cloning from human Dorsal Root Ganglion (DRG) or kidney according to the methods such as described in the journal article; Nature, 389, pp 816-824, 1997. Alternatively VR1 receptors highly expressing human keratinocytes are also known and published in the journal article (Biochemical and Biophysical Research Communications, 291, pp 124-129, 2002). […] Further more, the method to up regulate human VR1 gene, which is usually a silent gene or don't produce detectable level of VR1 receptors, is also available to obtain propriety cells. Such genetic modification method was described in detail; Nat. Biotechnol., 19, pp 440-445, 2001.
The cells that express human VR1 receptors were maintained in culture flask at 37° C. in an environment containing 5% CO2 until use in the assay. The intracellular Ca^2+ imaging assay to determine VR1 antagonistic activities were done by following procedures.
The culture medium was removed from the flask and fura-2/AM fluorescent calcium indicator was added to the flask at a concentration of 5 μM in the medium. The flask was placed in CO2 incubator and incubated for 1 hour. Then the cells expressing the human VR1 receptors were detached from the flask follow by washing with phosphate buffer saline, PBS(−) and re-suspended in assay buffer. The 80 μl of aliquot of cell suspension (3.75×10^5 cells/ml) was added to the assay plate and the cells were spun down by centrifuge (950 rpm, 20° C., 3 minutes).
Capsaicin Stimulation Assay:
The capsaicin-induced changes in the intracellular calcium concentration were monitored using FDSS 6000 (Hamamatsu Photonics, Japan), a fluorometric imaging system. The cell suspension in Krebs-Ringer HEPES (KRH) buffer (115 mM NaCl, 5.4 mM KCl, 1 mM MgSO4, 1.8 mM CaCl2, 11 mM D-Glucose, 25 mM HEPES, 0.96 mM Na2HPO4, pH 7.3) were pre-incubated with varying concentrations of the test compounds or KRH buffer (buffer control) for 15 minutes at room temperature under the dark condition. Then capsaicin solution, which gives 300 nM in assay mixture, was automatically added to the assay plate by the FDSS 6000.
The Acid-induced changes in the intracellular calcium concentration were monitored using FDSS 6000 (Hamamatsu Photonics, Japan), a fluorometric imaging system. The cell suspension in resting buffer (HBSS supplemented with 10 mM HEPES, pH 7.4) were pre-incubated with varying concentrations of the test compounds or resting buffer (buffer control) for 15 minutes at room temperature under the dark condition. The cells were automatically added the stimulating solution (HBSS supplemented with MES, final assay buffer pH5.8) by the FDSS 6000.
Determination of Antagonist Activity
The monitoring of the changes in the fluorescence signals (λex=340 nm/380 nm, λem=510-520 nm) was initiated at 1 minute prior to the addition of capsaicin solution or acidic buffer and continued for 5 minute.

[1] = Half-life in Human Liver Microsomes (HLM); conditions: human, human liver microsomes (HL101), pH 7.4

T1 sequence (Q8NER1 whole entry): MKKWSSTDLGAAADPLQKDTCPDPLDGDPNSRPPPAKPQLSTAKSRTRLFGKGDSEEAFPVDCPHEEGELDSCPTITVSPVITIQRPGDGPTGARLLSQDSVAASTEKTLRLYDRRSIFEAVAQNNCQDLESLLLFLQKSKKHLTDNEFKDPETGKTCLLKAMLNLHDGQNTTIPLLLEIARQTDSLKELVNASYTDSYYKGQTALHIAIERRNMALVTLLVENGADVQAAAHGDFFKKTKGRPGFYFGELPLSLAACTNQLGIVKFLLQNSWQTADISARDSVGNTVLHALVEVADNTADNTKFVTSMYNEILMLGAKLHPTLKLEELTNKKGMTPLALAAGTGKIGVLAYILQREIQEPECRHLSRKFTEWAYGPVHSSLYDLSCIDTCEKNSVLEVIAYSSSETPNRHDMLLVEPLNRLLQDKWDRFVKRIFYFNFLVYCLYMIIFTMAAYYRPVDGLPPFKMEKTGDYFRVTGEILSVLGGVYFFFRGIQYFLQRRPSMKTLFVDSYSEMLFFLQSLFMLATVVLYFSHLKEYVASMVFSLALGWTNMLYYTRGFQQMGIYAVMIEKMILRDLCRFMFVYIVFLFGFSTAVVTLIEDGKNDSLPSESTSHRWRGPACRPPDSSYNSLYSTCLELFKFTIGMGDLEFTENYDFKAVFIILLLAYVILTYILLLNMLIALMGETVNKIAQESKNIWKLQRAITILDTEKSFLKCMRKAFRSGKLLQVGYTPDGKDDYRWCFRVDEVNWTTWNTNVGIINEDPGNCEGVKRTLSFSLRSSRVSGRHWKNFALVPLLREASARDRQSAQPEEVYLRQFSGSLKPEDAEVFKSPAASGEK

CC[C@@H](NC(=O)[C@H]1C[C@]1(C)c1ccc(C(F)(F)F)cc1)c1ccc(NS(C)(=O)=O)cc1 [Example 31, (1S,2S)-2-Methyl-N-((1R)-1-{4-[(methylsulfonyl)amino]phenyl}propyl)-2-[4-(trifluoromethyl)phenyl]cyclopropanecarboxamide]
pIC50 (human VR1 receptors): 6.72
half-life at 1 μM [1]: > 120 min

CCc1cc([C@@H](C)NC(=O)[C@H]2C[C@]2(C)c2ccc(C(F)(F)F)cc2)ccc1NS(C)(=O)=O [Example 32, (1S,2S)-N-((1R)-1-{3-Ethyl-4-[(methylsulfonyl)amino]phenyl}ethyl)-2-methyl-2-[4-(trifluoromethyl)phenyl]cyclopropanecarboxamide]
pIC50 (human VR1 receptors): 9.03
half-life at 1 μM [1]: 10.8 min

CCc1cc([C@@H](C)NC(=O)[C@H]2C[C@@H]2c2ccc(C(F)(F)F)cc2)ccc1NS(C)(=O)=O [Example 33, N-((1R)-1-{3-Ethyl-4-[(methylsulfonyl)amino]phenyl}ethyl)-2-[4-(trifluoromethyl)phenyl]cyclopropanecarboxamide]
pIC50 (human VR1 receptors): 7.25
half-life at 1 μM [1]: 39 min

CC[C@@H](NC(=O)[C@H]1C[C@]1(C)c1ccc(C(F)(F)F)cc1)c1ccc(NS(C)(=O)=O)c(C)c1 [Example 34, (1S,2S)-2-Methyl-N-((1R)-1-{3-methyl-4-[(methylsulfonyl)amino]phenyl}propyl)-2-[4-(trifluoromethyl)phenyl]cyclopropanecarboxamide]
pIC50 (human VR1 receptors): 8.33
half-life at 1 μM [1]: > 120 min

Cc1cc([C@@H](C)NC(=O)[C@H]2C[C@]2(C)c2ccc(C(C)(C)C(F)(F)F)cc2)ncc1NS(C)(=O)=O [Example 37, 2-Methyl-N-((1R)-1-{4-methyl-5-[(methylsulfonyl)amino]pyridin-2-yl}ethyl)-2-[4-(2,2,2-trifluoro-1,1-dimethylethyl)phenyl]cyclopropanecarboxamide]
pIC50 (human VR1 receptors): 6.71
half-life at 1 μM [1]: 41 min

C[C@@H](NC(=O)[C@H]1C[C@@H]1c1cc(F)c(C(C)(C)C)c(F)c1)c1ccc(NS(C)(=O)=O)cc1 [Example 38, 2-[4-tert-Butyl-3,5-difluorophenyl]-N-((1R)-1-{4-[(methylsulfonyl)amino]phenyl}ethyl)cyclopropanecarboxamide]
pIC50 (human VR1 receptors): 7.15
half-life at 1 μM [1]: 40 min

Cc1cc([C@@H](C)NC(=O)[C@H]2C[C@@H]2c2cc(F)c(C(C)(C)C)c(F)c2)ccc1NS(C)(=O)=O [Example 39, 2-(4-tert-Butyl-3,5-difluorophenyl)-N-((1R)-1-{3-methyl-4-[(methylsulfonyl)amino]phenyl}ethyl)cyclopropanecarboxamide]
pIC50 (human VR1 receptors): 8.04
half-life at 1 μM [1]: 15 min

C[C@@H](NC(=O)[C@H]1C[C@@H]1c1cc(F)c(C(C)(C)C)c(F)c1)c1ccc(NS(C)(=O)=O)c(F)c1 [Example 40, 2-(4-tert-Butyl-3,5-difluorophenyl)-N-((1R)-1-{3-fluoro-4-[(methylsulfonyl)amino]phenyl}ethyl)cyclopropanecarboxamide]
pIC50 (human VR1 receptors): 7.49
half-life at 1 μM [1]: 35 min

Cc1cc([C@@H](C)NC(=O)[C@H]2C[C@]2(C)c2ccc(C(F)(F)F)cc2)c(F)cc1NS(C)(=O)=O [Example 41, (1S,2S)-N-((1R)-1-{2-Fluoro-5-methyl-4-[(methylsulfonyl)amino]phenyl}ethyl)-2-methyl-2-[4-(trifluoromethyl)phenyl]cyclopropanecarboxamide]
pIC50 (human VR1 receptors): 9.63
half-life at 1 μM [1]: 21 min

Cc1cc([C@@H](C)NC(=O)[C@H]2C[C@]2(C)c2ccc(C(F)(F)F)c(F)c2)c(F)cc1NS(C)(=O)=O [Example 42, N-((1R)-1-{2-Fluoro-5-methyl-4-[(methylsulfonyl)amino]phenyl}ethyl)-2-[3-fluoro-4-(trifluoromethyl)phenyl]-2-methylcyclopropanecarboxamide]
pIC50 (human VR1 receptors): 9.15
half-life at 1 μM [1]: 19.7 min

C[C@@H](NC(=O)[C@H]1C[C@]1(C)c1cc(F)c(C(C)(C)C)c(F)c1)c1ccc(NS(C)(=O)=O)cc1 [Example 43, 2-(4-tert-Butyl-3,5-difluorophenyl)-2-methyl-N-((1R)-1-{4-[(methylsulfonyl)amino]phenyl}ethyl)cyclopropanecarboxamide]
pIC50 (human VR1 receptors): 7.68
half-life at 1 μM [1]: 41 min

Cc1cc([C@@H](C)NC(=O)[C@H]2C[C@]2(C)c2cc(F)c(C(C)(C)C)c(F)c2)ccc1NS(C)(=O)=O [Example 44, 2-(4-tert-Butyl-3,5-difluorophenyl)-2-methyl-N-((1R)-1-{3-methyl-4-[(methylsulfonyl)amino]phenyl}ethyl)cyclopropanecarboxamide]
pIC50 (human VR1 receptors): 8.70
half-life at 1 μM [1]: 29 min

C[C@@H](NC(=O)[C@H]1C[C@]1(C)c1cc(F)c(C(C)(C)C)c(F)c1)c1ccc(NS(C)(=O)=O)c(F)c1 [Example 45, 2-(4-tert-Butyl-3,5-difluorophenyl)-N-((1R)-1-{3-fluoro-4-[(methylsulfonyl)amino]phenyl}ethyl)-2-methylcyclopropanecarboxamide]
pIC50 (human VR1 receptors): 8.23
half-life at 1 μM [1]: 29 min

Cc1cc([C@@H](C)NC(=O)[C@H]2C[C@@H]2c2ccc(C(F)(F)F)nc2N2CCCC2)ccc1NS(C)(=O)=O [Example 46, N-((1R)-1-{3-Methyl-4-[(methylsulfonyl)amino]phenyl}ethyl)-2-[2-pyrrolidin-1-yl-6-(trifluoromethyl)pyridin-3-yl]cyclopropanecarboxamide]
pIC50 (human VR1 receptors): 7.90
half-life at 1 μM [1]: 23 min

C[C@@H](NC(=O)[C@H]1C[C@@H]1c1ccc(C(F)(F)F)nc1N1CCCC1)c1ccc(NS(C)(=O)=O)c(CO)c1 [Example 47, N-((1R)-1-{3-(Hydroxymethyl)-4-[(methylsulfonyl)amino]phenyl}ethyl)-2-[2-pyrrolidin-1-yl-6-(trifluoromethyl)pyridin-3-yl]cyclopropanecarboxamide]
pIC50 (human VR1 receptors): 8.12
half-life at 1 μM [1]: 11 min

C[C@@H](NC(=O)[C@H]1C[C@@H]1c1ccc(C(C)(C)C(F)(F)F)cc1)c1ccc(NS(C)(=O)=O)c(CO)c1 [Example 48, N-((1R)-1-{3-(Hydroxymethyl)-4-[(methylsulfonyl)amino]phenyl}ethyl)-2-[4-(2,2,2-trifluoro-1,1-dimethylethyl)phenyl]cyclopropanecarboxamide]
pIC50 (human VR1 receptors): 6.69
half-life at 1 μM [1]: 21 min

Cc1cc([C@@H](C)NC(=O)C2CC2c2ccc(C(C)(C)C)nc2N2CCCCC2)ccc1NS(C)(=O)=O (stereo partly drawn) [Example 49, 2-(6-tert-Butyl-2-piperidin-1-ylpyridin-3-yl)-N-((1R)-1-{3-methyl-4-[(methylsulfonyl)amino]phenyl}ethyl)cyclopropanecarboxamide]
pIC50 (human VR1 receptors): 6.90
half-life at 1 μM [1]: 3 min

C[C@@H](NC(=O)C1CC1c1ccc(C(C)(C)C)nc1N1CCCCC1)c1ccc(NS(C)(=O)=O)c(F)c1 (stereo partly drawn) [Example 50, 2-(6-tert-Butyl-2-piperidin-1-ylpyridin-3-yl)-N-((1R)-1-{3-fluoro-4-[(methylsulfonyl)amino]phenyl}ethyl)cyclopropanecarboxamide]
pIC50 (human VR1 receptors): 6.62
half-life at 1 μM [1]: 4 min

Cc1cc([C@@H](C)NC(=O)C2CC2c2ccc(C(C)(C)C)nc2N2CCCC2)ccc1NS(C)(=O)=O (stereo partly drawn) [Example 51, 2-(6-tert-Butyl-2-pyrrolidin-1-ylpyridin-3-yl)-N-((1R)-1-{3-methyl-4-[(methylsulfonyl)amino]phenyl}ethyl)cyclopropanecarboxamide]
pIC50 (human VR1 receptors): 7.81
half-life at 1 μM [1]: 5 min

Cc1cc([C@@H](C)NC(=O)C2CC2c2ccc(C(C)(C)C)nc2)ccc1NS(C)(=O)=O (stereo partly drawn) [Example 53, 2-[6-tert-Butylpyridin-3-yl]-N-((1R)-1-{3-methyl-4-[(methylsulfonyl)amino]phenyl}ethyl)cyclopropanecarboxamide]
pIC50 (human VR1 receptors): 6.90
half-life at 1 μM [1]: 44 min

Cc1nc([C@@H](C)NC(=O)C2CC2(C)c2ccc(C(F)(F)F)cc2)ccc1NS(C)(=O)=O (stereo partly drawn) [Example 54]
pIC50 (human VR1 receptors): 6.63
half-life at 1 μM [1]: 96 min
